Laboratory results from US12544395B2, “Combination compositions comprising a beta-lactamase inhibitor and uses thereof” (priority 2018, dated 2026).

Legend:
Assay type in all cases: cell-based
[1] = tested on: K. pneumoniae 115468; test: Broth microdilution MIC (strain enzymes: TEM-1); details: with inhibitor at 4 μg/mL
[2] = tested on: K. pneumoniae KPN 508; test: Broth microdilution MIC (strain enzymes: SHV-7, TEM-1)
[3] = tested on: E. coli SI-LP377; test: microbe, parasite or virus in culture
[4] = tested on: E. coli SI-AIRT-4; test: Broth microdilution MIC (strain enzymes: TEM-1)
[5] = tested on: K. pneumoniae SI-KP NO30; test: Broth microdilution MIC (strain enzymes: TEM-26b, SHV-60, SHV-26)
[6] = tested on: E. coli ESBL 4; test: Broth microdilution MIC (strain enzymes: CTX-M15, TEM-1)
[7] = tested on: K. oxytoca 169219; test: Broth microdilution MIC (strain enzymes: TEM-1, CTXM-15); details: with inhibitor at 1 μg/mL

SMILES: CCC(=O)N[C@H]1Cc2cccc(C(=O)O)c2OB1O [Compound 2, (R)-2-hydroxy-3-propionamido-3,4-dihydro-2H-benzo[e][1,2]oxaborinine-8-carboxylic acid]
- MIC of cefdinir (CDR) [1]: 0.125 µg/mL
- MIC of cefixime (CFM) [1]: 0.5 µg/mL
- MIC of ceftibuten (CTB) [1]: 0.06 µg/mL
- MIC of cefalexin (LEX) ([2]; with inhibitor at 1 μg/mL): 0.5 µg/mL
- MIC of cefdinir (CDR) ([2]; with inhibitor at 1 μg/mL): 0.5 µg/mL
- MIC of cefixime (CFM) ([2]; with inhibitor at 1 μg/mL): 4 µg/mL
- MIC of ceftibuten (CTB) ([2]; with inhibitor at 1 μg/mL): 0.125 µg/mL
- MIC of cefalexin (LEX) ([2]; with inhibitor at 2 μg/mL): 0.25 µg/mL
- MIC of cefdinir (CDR) ([2]; with inhibitor at 2 μg/mL): 0.25 µg/mL
- MIC of cefixime (CFM) ([2]; with inhibitor at 2 μg/mL): 1 µg/mL
- MIC of ceftibuten (CTB) ([2]; with inhibitor at 2 μg/mL): 0.125 µg/mL
- MIC of cefalexin (LEX) ([2]; with inhibitor at 4 μg/mL): 0.5 µg/mL
- MIC of cefdinir (CDR) ([2]; with inhibitor at 4 μg/mL): 0.5 µg/mL
- MIC of cefixime (CFM) ([2]; with inhibitor at 4 μg/mL): 0.5 µg/mL
- MIC of ceftibuten (CTB) ([2]; with inhibitor at 4 μg/mL): 0.06 µg/mL
- MIC of cefalexin (LEX) ([3]; with inhibitor at 1 μg/mL): 4 µg/mL
- MIC of cefdinir (CDR) ([3]; with inhibitor at 1 μg/mL): 4 µg/mL
- MIC of cefixime (CFM) ([3]; with inhibitor at 1 μg/mL): 0.5 µg/mL
- MIC of ceftibuten (CTB) ([3]; with inhibitor at 1 μg/mL): 0.125 µg/mL
- MIC of cefalexin (LEX) ([3]; with inhibitor at 2 μg/mL): 1 µg/mL
- MIC of cefdinir (CDR) ([3]; with inhibitor at 2 μg/mL): 1 µg/mL
- MIC of cefixime (CFM) ([3]; with inhibitor at 2 μg/mL): 0.25 µg/mL
- MIC of ceftibuten (CTB) ([3]; with inhibitor at 2 μg/mL): 0.125 µg/mL
- MIC of cefalexin (LEX) ([3]; with inhibitor at 4 μg/mL): 1 µg/mL
- MIC of cefdinir (CDR) ([3]; with inhibitor at 4 μg/mL): 1 µg/mL
- MIC of cefixime (CFM) ([3]; with inhibitor at 4 μg/mL): 0.125 µg/mL
- MIC of ceftibuten (CTB) ([3]; with inhibitor at 4 μg/mL): 0.125 µg/mL
- MIC of cefalexin (LEX) ([4]; with inhibitor at 1 μg/mL): 0.25 µg/mL
- MIC of cefdinir (CDR) ([4]; with inhibitor at 1 μg/mL): 0.25 µg/mL
- MIC of cefixime (CFM) ([4]; with inhibitor at 1 μg/mL): 0.125 µg/mL
- MIC of ceftibuten (CTB) ([4]; with inhibitor at 1 μg/mL): 0.06 µg/mL
- MIC of cefalexin (LEX) ([4]; with inhibitor at 2 μg/mL): 0.25 µg/mL
- MIC of cefdinir (CDR) ([4]; with inhibitor at 2 μg/mL): 0.25 µg/mL
- MIC of cefixime (CFM) ([4]; with inhibitor at 2 μg/mL): 0.125 µg/mL
- MIC of ceftibuten (CTB) ([4]; with inhibitor at 2 μg/mL): 0.06 µg/mL
- MIC of cefalexin (LEX) ([4]; with inhibitor at 4 μg/mL): 0.25 µg/mL
- MIC of cefdinir (CDR) ([4]; with inhibitor at 4 μg/mL): 0.25 µg/mL
- MIC of cefixime (CFM) ([4]; with inhibitor at 4 μg/mL): 0.06 µg/mL
- MIC of ceftibuten (CTB) ([4]; with inhibitor at 4 μg/mL): 0.06 µg/mL
- MIC of cefalexin (LEX) ([5]; with inhibitor at 1 μg/mL): 0.125 µg/mL
- MIC of cefdinir (CDR) ([5]; with inhibitor at 1 μg/mL): 0.125 µg/mL
- MIC of cefixime (CFM) ([5]; with inhibitor at 1 μg/mL): 0.5 µg/mL
- MIC of ceftibuten (CTB) ([5]; with inhibitor at 1 μg/mL): 0.06 µg/mL
- MIC of cefalexin (LEX) ([5]; with inhibitor at 2 μg/mL): 0.25 µg/mL
- MIC of cefdinir (CDR) ([5]; with inhibitor at 2 μg/mL): 0.25 µg/mL
- MIC of cefixime (CFM) ([5]; with inhibitor at 2 μg/mL): 0.25 µg/mL
- MIC of ceftibuten (CTB) ([5]; with inhibitor at 2 μg/mL): 0.06 µg/mL
- MIC of cefalexin (LEX) ([5]; with inhibitor at 4 μg/mL): 0.125 µg/mL
- MIC of cefdinir (CDR) ([5]; with inhibitor at 4 μg/mL): 0.125 µg/mL
- MIC of cefixime (CFM) ([5]; with inhibitor at 4 μg/mL): 0.25 µg/mL
- MIC of ceftibuten (CTB) ([5]; with inhibitor at 4 μg/mL): 0.06 µg/mL
- MIC of cefalexin (LEX) ([6]; with inhibitor at 1 μg/mL): 2 µg/mL
- MIC of cefdinir (CDR) ([6]; with inhibitor at 1 μg/mL): 2 µg/mL
- MIC of cefixime (CFM) ([6]; with inhibitor at 1 μg/mL): 0.5 µg/mL
- MIC of ceftibuten (CTB) ([6]; with inhibitor at 1 μg/mL): 0.25 µg/mL
- MIC of cefalexin (LEX) ([6]; with inhibitor at 2 μg/mL): 1 µg/mL
- MIC of cefdinir (CDR) ([6]; with inhibitor at 2 μg/mL): 1 µg/mL
- MIC of cefixime (CFM) ([6]; with inhibitor at 2 μg/mL): 0.25 µg/mL
- MIC of ceftibuten (CTB) ([6]; with inhibitor at 2 μg/mL): 0.125 µg/mL
- MIC of cefalexin (LEX) ([6]; with inhibitor at 4 μg/mL): 0.5 µg/mL
- MIC of cefdinir (CDR) ([6]; with inhibitor at 4 μg/mL): 0.5 µg/mL
- MIC of cefixime (CFM) ([6]; with inhibitor at 4 μg/mL): 0.25 µg/mL
- MIC of ceftibuten (CTB) ([6]; with inhibitor at 4 μg/mL): 0.25 µg/mL
- MIC of cefalexin (LEX) [7]: 1 µg/mL
- MIC of cefdinir (CDR) [7]: 1 µg/mL
- MIC of cefixime (CFM) [7]: 0.25 µg/mL
- MIC of ceftibuten (CTB) [7]: 0.03 µg/mL
